The record followed here is patent US7759367B2, “Pharmaceutical compositions and their uses” (Eisai R&D Management Co., Ltd., priority 2001, dated 2010).

The structures appear in SMILES notation.

Experiment [1] concerns Female Lewis rats. Briefly: Experimental autoimmune encephalomyelitis model (Test Example 10). It is filed as in vivo, rat. As to conditions: p.o. 5, 10 and 20 mg/kg, 10-16 dpi. The procedure: Female Lewis rats (205±10 g) obtained from Charles River, Kent UK, were housed in pairs under environmentally controlled conditions (6:00a.m.-6:00p.m. light/dark cycle; 22-24° C.; 45-55% humidity) and allowed free access to food and water. Experimental groups consisted of 9-12 animals. Rats were immunised in each hind foot with 20-50 μl of inoculum containing 50 μg guinea pig myelin basic protein (MBP; final concentration 2 mg/ml), emulsified in Freund's complete adjuvant (CFA; Sigma, UK) containing Mycobacterium tuberculosis H37Ra (final concentration 5.5 mg/ml; Difco Laboratories, UK). Animals were weighed and monitored daily and clinical disease scored as (0) no clinical signs; (1) flaccid tail and weight loss; (2) hind limb hypotonia with further weight loss; (3) complete hind limb paralysis; (4) paraplegia and (5) death. […] During the period of compound administration (10-16 days post immunisation; dpi) animals were scored 15 h after injection of vehicle or compound to avoid any acute effect of treatment on disease score. Compounds were dissolved/suspended in 0.5% methyl cellulose using a hand held Polytron homogeniser (PT1200; 2 min). Rats were dosed p.o. with either methyl cellulose vehicle (2.5 ml/kg) or compound at 5, 10 and 20 mg/kg.

The subject of experiment [2] is AMPA receptor. The conditions noted are these: primary culture of rat embryo cerebral cortex nerve cells; Fura2-AM; 2 μM AMPA; 1 μM MK-801.
Procedure: Cerebral cortex was cut out from the brain of rat of gestational 18 days and treated with trypsin and DNase to disperse the cells. The cells were flown by MEM containing 10% of serum, sown in a culture bottle and astrocytes were proliferated. The astrocytes were re-dispersed by trypsin and sown in a 96-well plate. After incubation for one week, it was confirmed that the astrocytes covered all over the bottom and then the nerve cells of cerebral cortex which was dispersed by the above method were sown thereupon. After incubation for 24 hours, the medium was changed, the incubation was carried out for one week and, after that, the medium was changed to that containing 1 μM of MK-801. Nerve cells which were incubated for not shorter than 8 to 10 days were used.
Calcium influx into the cells was measured using Fura2-AM which was a calcium-sensitive fluorescent dye. It was treated in a medium containing Fura2-AM for 1 hour, incorporated into the cells, exchanged to a Tyrode solution containing 1 μM MK-801 and stimulation was carried out using 2 μM AMPA. Change in the amount of calcium flown into the cells were measured as the change in the fluorescent intensity at the exciting wave length of 340/380 nm.
For experiment [3], the system named is male mice of ddy strain. Nature of the experiment: Anticonvulsant action induced by AMPA (Test Example 2). It is filed as in vivo. As to conditions: 25 mg/kg orally, AMPA 2 nmole/5 μl/minute/mouse into lateral ventricle 30 minutes or 1 hour after dosing. The procedure:
A test compound was suspended in a 0.5% methyl cellulose solution or in sesame oil and was orally administered (25 mg/kg) to male mice of ddy strain. After 30 minutes or 1 hour from the oral administration, AMPA was continuously injected (2 nmole/5 μl/minute/mouse) into lateral ventricle to induce the convulsions. The effect was judged by a time-extending action until the convulsion takes place by a continuous injection of AMPA.

Experiment [4] has as its system Lewis rats. Briefly: Acute EAE in Lewis rats: Example 7 alone and combined with interferon-β (In Vivo Example 1). As to conditions: Lewis rat acute EAE, Example 7 10 mg/kg p.o., interferon-β 1×10^6 Units/rat s.c., once daily 7-16 dpi. The procedure:
Female Lewis rats (200+10 g) obtained from Charles River, Kent, UK, were housed in pairs under environmentally controlled conditions (6:00 a.m.-6:00 p.m. light/dark cycle; 22-24° C.; 45-55% humidity) and allowed free access to food and water. Experimental groups consisted of 8 animals.
Rats were immunised in each hind foot with 15 μl of inoculum containing […] guinea pig myelin basic protein (MBP, prepared by the method of Dunkley and Carnegie (1974); final concentration 2 mg/ml), emulsified in Freund's complete adjuvant (CFA; Sigma, UK) containing Mycobacterium tuberculosis H37Ra (final concentration 5.5 mg/ml; Difco Laboratories, UK).
Animals were weighed and monitored daily and clinical disease scored as (0) no clinical signs; (1) flaccid tail and weight loss; (2) hind limb hypotonia with further weight loss; (3) complete hind limb paralysis; (4) paraplegia and (5) death. […] During the period of compound administration (7-16 days post immunisation; dpi) animals were scored 15 h after injection of vehicle, compound of example 7 or interferon-β to avoid any acute effect of treatment on disease score.
3-(2-Cyanophenyl)-1-phenyl-5-(2-pyridyl)-1,2-dihydropyridin-2-one; (example 7) was suspended in 0.5% methyl cellulose (MC) solution to obtain a compound concentration of 4 mg/ml. Interferon-β was dissolved in PBS to obtain a compound concentration of 5×10^6 Units/ml. Rats were dosed once daily (9 a.m.) on days 7 to 16 post immunisation with either vehicle (methyl cellulose p.o. and PBS s.c.), the compound alone in the dose of 10 mg/kg (p.o. plus vehicle PBS s.c), interferon-β alone in the dose of 1×10^6 Units/rat (s.c. plus methyl cellulose p.o.) or example 7 in the dose of 10 mg/kg (p.o) combined with interferon-β in the dose of 1×10^6 Units/rat (s.c.).
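Throughout, for IC50: neurons cultured at least 8 to 10 days atop an astrocyte layer in 96-well plates, calcium entry read as the change in Fura2 fluorescence ratio at 340/380 nm excitation.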

The term IC50 denotes the concentration at which inhibition is half-maximal. Higher therefore signals lower potency. With `N#Cc1ccccc1-c1cc(-c2ccccn2)cn(-c2ccccc2)c1=O` [Example 7, 3-(2-Cyanophenyl)-1-phenyl-5-(2-pyridyl)-1,2-dihydropyridin-2-one], in experiment [1], the “Effect on EAE vs vehicle-administered group” value is recorded as “superior effect to the vehicle-administered group”. The molecule also returned an IC50 in experiment [2] of 100 nM. The “Anticonvulsant action (time-extending action until convulsion by continuous AMPA injection)” value in experiment [3] is given as “significant anticonvulsant action”. Besides, the “Duration (days)” value in experiment [4] (mean and range, n=8) is 3.0 (0-4) days. Besides, the “Onset (d.p.i.)” value in experiment [4] (mean and range, n=8 (n=1 for the combination)) is 11.8 (11-15) d.p.i. Further, in experiment [4] (n=8/group), the “Effect on disease progression (paralysis, disease score, onset, duration) during EAE, in words” value was “significantly delayed disease onset, shortened disease duration and reduced peak and cumulative disease score”. In addition, the “Peak Disease Score” value in experiment [4] (clinical score 0-5, mean and range, n=8) is 1.8 (0-3). In experiment [4] (summation of individual daily disease scores, mean and range, n=8), the “Cumulative Disease Score” value was 4.8 (0-10). Moreover, the “Weight Loss (%)” value in experiment [4] (weight on 18 dpi as percent of maximum weight before disease onset, mean and range, n=8) was 17 (10-23) %.
